From patent US20250367184A1, “CYP11A1 INHIBITOR FOR USE IN THE TREATMENT OF PROSTATE CANCER” (ORION CORPORATION, priority 2021, published 2025) come the findings set out here.

The subject of experiment [1] is Patients with progressive mCRPC. Nature of the experiment: Clinical study of compound (1A) in progressive mCRPC patients: PSA change from baseline by activating AR gene alteration status. The class given is in vivo, human. Particulars: for subjects with PSA decline of ≥50% (PSA response): oral 10-150 mg daily with corticosteroids, on ADT, prior ARSi. From the text:
Patients with progressive mCRPC were enrolled in the clinical trial to study the effect of a CYP11A1 inhibitor 2-(isoindolin-2-ylmethyl)-5-((1-(methylsulfonyl)-piperidin-4-yl)methoxy)-4H-pyran-4-one (1A). The patients were on ADT therapy and had previously received androgen receptor signalling inhibitor (ARSi) therapy and chemotherapy, or were ineligible for chemotherapy. Five different daily dose levels of compound (1A) with dexamethasone and fludrocortisone were given orally to 27 patients in the dose escalation/de-escalation part. Corticosteroid doses were allowed to be adjusted during the trial based on the subject's clinical condition. The daily doses were 10 mg (5 mg b.i.d), 30 mg (15 mg b.i.d.), 50 mg (25 mg b.i.d), 100 mg (50 mg b.i.d.), and 150 mg (75 mg b.i.d.). In a separate dosing evaluation part, once daily dosing of 25 mg of compound (1A), and two different glucocorticoid replacement therapies, hydrocortisone and prednisone, were evaluated in 14 patients. Subjects were allowed to continue the therapy until disease progression or intolerable toxicity. Anti-tumour activity was determined by measuring change in the PSA (prostate-specific antigen) value in PSA evaluable patient population (n=37, at least 4-week value available). A decrease in the PSA value indicates anti-tumour activity. PSA response in a patient was defined as at least 50% decline from the baseline PSA value.
Existence of activating AR-LBD somatic point mutations and AR gene amplification were analysed in plasma cfDNA samples obtained from the patients using the OncoBEAM® prostate cancer digital PCR assay panel (Sysmex Inostics, Inc.) and Guardant360 CDx (Guardant Health, Inc) assay panel. The assay panels were utilized to test the existence of activating AR-LBD point mutations including L702H, V716M, V716L, W742C, W742L, H875Y, F877L, T878A, T878S, D891Y, M896T and M896V.

Experiment [2] shares this test system. Nature of the experiment: Clinical study of compound (1B) in progressive mCRPC patients: PSA change from baseline by activating AR gene alteration status. The class given is in vivo, human. The conditions noted are these: for subjects with PSA decline of ≥50% (PSA response): oral 10-20 mg daily with corticosteroids, on ADT, prior ARSi. The source says: Patients with progressive mCRPC were enrolled in the clinical trial to study the effect of a CYP11A1 inhibitor 2-5-((1-(methylsulfonyl)piperidin-4-yl)methoxy)-2-((5-(trifluoromethyl) isoindolin-2-yl)methyl)-4/-pyran-4-one (1B). The patients were on ADT therapy and had previously received androgen receptor signalling inhibitor (ARSi) therapy and chemotherapy, or were ineligible for chemotherapy. Three different daily dose levels of compound (1B) with hydrocortisone and fludro-cortisone were given orally to 13 subjects in the dose escalation part. Corticosteroid doses were allowed to be adjusted during the trial based on the subject's clinical condition. The daily doses were 10 mg (10 mg q.d), 15 mg (15 mg q.d) and 20 mg (20 mg q.d). In a separate dosing evaluation part, twice daily dosing of 5 mg and 10 mg of compound (1B), and different glucocorticoid replacement therapy, dexamethasone, and different hydrocortisone dosing regimen were evaluated in 16 patients. Subjects were allowed to continue the therapy until disease progression or intolerable toxicity. Anti-tumour activity was determined by measuring change in the PSA (prostate-specific antigen) value. A decrease in the PSA value indicates anti-tumour activity. PSA response in a patient was defined as at least 50% decline from the baseline PSA value.
Existence of activating AR-LBD somatic point mutations and AR gene amplification were analysed in plasma cfDNA samples obtained from the patients using the OncoBEAM® prostate cancer digital PCR assay panel (Sysmex Inostics, Inc.) and Guardant360 CDx (Guardant Health, Inc) assay panel. The assay panels were utilized to test the existence of activating AR-LBD mutations including L702H, V716M, V716L, W742C, W742L, H875Y, F877L, T878A, T878S, D891Y, M896T and M896V.

In the case of `CS(=O)(=O)N1CCC(COc2coc(CN3Cc4ccccc4C3)cc2=O)CC1` [1A, 2-(isoindolin-2-ylmethyl)-5-((1-(methylsulfonyl)piperidin-4-yl)methoxy)-4H-pyran-4-one], the “subjects with a PSA response (decline of ≥50%) that were activating AR gene alteration positive” value in experiment [1] (12 out of 13 PSA responders) is on record as 92.3%. For the same compound, the “subjects with PSA decline of ≥50% (PSA response)” value in experiment [1] (subjects with activating AR gene alteration (12 out of 17)) was determined as 70.6%; in experiment [1] (subjects without an activating AR gene alteration (1 out of 20)), 5.0%. Besides, the “anti-tumour activity (PSA change) in subjects with versus without activating AR gene alteration” value in experiment [1] (with alteration n=17 compared to without n=20) was “substantially higher”.

On to `CS(=O)(=O)N1CCC(COc2coc(CN3Cc4ccc(C(F)(F)F)cc4C3)cc2=O)CC1` [1B, 5-((1-(methylsulfonyl)piperidin-4-yl)methoxy)-2-((5-(trifluoromethyl)isoindolin-2-yl)methyl)-4H-pyran-4-one], for which the “subjects with a PSA response (decline of ≥50%) that were activating AR gene alteration positive” value in experiment [2] (6 out of 6 PSA responders) is on record as 100%. Moreover, the “subjects with PSA decline of ≥50% (PSA response)” value in experiment [2] (subjects with activating AR gene alteration (6 out of 17)) came to 35.3%; in experiment [2] (subjects without an activating AR gene alteration (0 out of 8)), 0%. Moreover, the “anti-tumour activity (PSA change) in subjects with versus without activating AR gene alteration” value in experiment [2] (with alteration n=17 compared to without n=8) is given as “substantially higher”.
